Measured values taken from PubChem BioAssay AID789 (SRMLSC, 2007).
The source made the active and inactive calls. How the calls were made is not given here.

Key:
[1] = growth inhibition of apl2Δ yeast, dose response, selectivity assay for post-Golgi transport modulator project, S. cerevisiae, secondary screen, background strain comparison (AID 789); conditions: S. cerevisiae background (wild-type parent) strain growth inhibition
[2] = system: S. cerevisiae apl2Δ mutant growth inhibition; test: as above

CN1/C(=C/C2CC(=O)NC2=O)C(C)(C)c2ccccc21 (stereo unspecified)
IC50 [1]: > 10 µM
IC50 [2]: > 10 µM (inactive)

Cc1cc(C)c2c(c1)/C(=C/C(=O)c1ccc(Br)s1)C(=O)N2
IC50 [1]: 1.42 µM
IC50 [2]: 1.55 µM (inactive)

Cc1ccc(C(C)C)c(OCCCN2CC(C)OC(C)C2)c1 (stereo unspecified)
IC50 [1]: > 10 µM
IC50 [2]: > 10 µM (inactive)

COC(=O)c1ccc(CSc2nnc(NC(C)C)s2)cc1
IC50 [1]: > 10 µM
IC50 [2]: > 10 µM (inactive)

CCN(CC)CCn1nc(C)nc1-c1ccccc1O
IC50 [1]: > 10 µM
IC50 [2]: > 10 µM (inactive)

O=c1c2c3c(sc2ncn1/N=C/c1ccc([N+](=O)[O-])o1)CCCC3
IC50 [1]: 1.59 µM
IC50 [2]: 2.1 µM (inactive)

CCN(CC)C(=O)C1CCN(Cc2ccc(Br)cc2)CC1
IC50 [1]: > 10 µM
IC50 [2]: > 10 µM (inactive)

O=C(c1ccco1)N1CCN=C1SCc1cccnc1
IC50 [1]: > 10 µM
IC50 [2]: > 10 µM (inactive)

Cc1cc2ncn(CC(O)COc3cccc(C(=O)O)c3)c2cc1C (stereo unspecified)
IC50 [1]: > 10 µM
IC50 [2]: > 10 µM (inactive)

CC1CN(CC(O)COc2ccc(C(C)C)cc2)CC(C)O1 (stereo unspecified)
IC50 [1]: > 10 µM
IC50 [2]: > 10 µM (inactive)

CCN(CC)c1ccc(CN2CC=C(c3ccc(F)cc3)CC2)cc1
IC50 [1]: 25.8 µM
IC50 [2]: 17.3 µM

COc1ccc(C2CC(=O)C3=C(C2)NC(C)=C(C(=O)Nc2ccccc2C)C3c2coc3ccc(C)cc3c2=O)cc1OC (stereo unspecified)
IC50 [1]: > 10 µM
IC50 [2]: > 10 µM (inactive)

O=C1NC2(Nc3ccccc31)C(=O)Nc1ccccc12 (stereo unspecified)
IC50 [1]: > 10 µM
IC50 [2]: > 10 µM (inactive)

CCOC(=O)COc1ccccc1C1Nc2ccccc2C(=O)N1c1cccc(Cl)c1 (stereo unspecified)
IC50 [1]: > 10 µM
IC50 [2]: > 10 µM (inactive)

C=C(C)C1CC=C(CN2CC(C)OC(C)C2)CC1 (stereo unspecified)
IC50 [1]: > 10 µM
IC50 [2]: > 10 µM (inactive)

Nc1ccc(Oc2ccc3nc(-c4ccccc4)c(-c4ccccc4)nc3c2)cc1
IC50 [1]: 1.21 µM
IC50 [2]: 2 µM (inactive)

Cc1cccc(N2CCN(CC(=O)Nc3nccs3)CC2)c1C
IC50 [1]: > 10 µM
IC50 [2]: > 10 µM (inactive)

C=CCc1ccc(OCC(O)CN2CCC(Cc3ccccc3)CC2)c(OC)c1 (stereo unspecified)
IC50 [1]: 19.1 µM
IC50 [2]: 12.5 µM

O=C(CCC(=O)OCC(=O)c1ccc(F)cc1)NC1CCCCC1
IC50 [1]: > 10 µM
IC50 [2]: > 10 µM (inactive)

COc1cccc(NC(=O)C2CCCN2C(=O)OCc2ccccc2)c1 (stereo unspecified)
IC50 [1]: > 10 µM
IC50 [2]: > 10 µM (inactive)

COc1cccc(C(=O)N2CCN(C3CCC(c4ccccc4)CC3)CC2)c1OC (stereo unspecified)
IC50 [1]: 23.9 µM
IC50 [2]: 14.6 µM

CCN(CC)c1ccc(-c2nc3cnccc3n2C)cc1
IC50 [1]: > 10 µM
IC50 [2]: > 10 µM (inactive)

O=C(NCCc1ccccc1)C1CCN(S(=O)(=O)N2CCCC2)CC1
IC50 [1]: > 10 µM
IC50 [2]: > 10 µM (inactive)

Fc1ccc(-c2noc(C3CCN(Cc4cccnc4)CC3)n2)cc1
IC50 [1]: > 10 µM
IC50 [2]: > 10 µM (inactive)

CSc1ncccc1C(=O)OCC(=O)N1CCOCC1
IC50 [1]: > 10 µM
IC50 [2]: > 10 µM (inactive)

CCOc1ccc(-c2[nH]ncc2Oc2ccccc2OCC)c(O)c1
IC50 [1]: 16 µM
IC50 [2]: 13.4 µM

Cc1ccc(S(=O)(=O)c2c(C)nn(C(C)(C)C)c2OC(=O)c2ccc(Br)o2)cc1
IC50 [1]: > 10 µM
IC50 [2]: > 10 µM (inactive)

Cc1ccc(SC(C)C(=O)Nc2ncn[nH]2)cc1 (stereo unspecified)
IC50 [1]: > 10 µM
IC50 [2]: > 10 µM (inactive)

CCOC(=O)C(C)Oc1ccc2c(C)cc(=O)oc2c1C(C)=O (stereo unspecified)
IC50 [1]: > 10 µM
IC50 [2]: > 10 µM (inactive)

OC(Cn1ccnc1)c1ccc(Cl)cc1Cl (stereo unspecified)
IC50 [1]: > 10 µM
IC50 [2]: > 10 µM (inactive)

Cc1ccc(C)c(C(=O)NCc2ccncc2)c1
IC50 [1]: > 10 µM
IC50 [2]: > 10 µM (inactive)

COc1ccc(NC(=O)N(C2CCCCC2)C(C)c2cccnc2)c(OC)c1 (stereo unspecified)
IC50 [1]: 16.7 µM
IC50 [2]: 12.6 µM

Clc1cc(Br)ccc1OCCOCCN1CCOCC1
IC50 [1]: > 10 µM
IC50 [2]: > 10 µM (inactive)

CCCCSCCCNC(=O)Nc1cccc(OC)c1
IC50 [1]: > 10 µM
IC50 [2]: > 10 µM (inactive)

COc1ccc(-c2nnc(CSc3nc4ccccc4c(=O)n3C)o2)cc1OC
IC50 [1]: > 10 µM
IC50 [2]: > 10 µM (inactive)

O=C(O)c1ccc(N2CCCCC2)cc1
IC50 [1]: > 10 µM
IC50 [2]: > 10 µM (inactive)

Cc1nc(NC(=O)c2ccccc2)sc1-c1csc(Nc2ccc(F)cc2)n1
IC50 [1]: > 10 µM
IC50 [2]: > 10 µM (inactive)

CCOC(=O)N1CCN(c2ccc(S(=O)(=O)N(Cc3ccccc3)Cc3ccccc3)cn2)CC1
IC50 [1]: > 10 µM
IC50 [2]: > 10 µM (inactive)

O=C(Nc1nnc(-c2ccc3c(c2)CCCC3)o1)c1ccccc1Cl
IC50 [1]: 10.7 µM
IC50 [2]: > 10 µM (inactive)

c1ccc2c(c1)oc1c(Nc3ccc(CN4CCOCC4)cc3)ncnc12
IC50 [1]: > 10 µM
IC50 [2]: > 10 µM (inactive)

O=C(Nc1nnc(-c2ccc3c(c2)CCCC3)o1)c1ccc(Cl)cc1Cl
IC50 [1]: 3.46 µM
IC50 [2]: > 10 µM (inactive)

O=C1OCC2=C1C(c1ccc(F)cc1)Sc1ccccc1N2 (stereo unspecified)
IC50 [1]: > 10 µM
IC50 [2]: > 10 µM (inactive)

Cc1cc(OCC(F)(F)C(F)(F)C(F)(F)C(F)(F)C(F)(F)C(F)F)nc(N)n1
IC50 [1]: > 10 µM
IC50 [2]: > 10 µM (inactive)

FC(F)(F)COc1nc(N2CCCCC2)nc(N2CCNCC2)n1
IC50 [1]: > 10 µM
IC50 [2]: > 10 µM (inactive)

Cc1nnc(-c2cccc(Br)c2)c2cn(-c3ccccc3Cl)nc12
IC50 [1]: 25.9 µM
IC50 [2]: > 10 µM (inactive)

Cc1cc(Cl)cc(C)c1OCCCCN1CCOCC1
IC50 [1]: > 10 µM
IC50 [2]: > 10 µM (inactive)

O=C(OCn1ncc(Br)c(Br)c1=O)c1ccc(F)cc1
IC50 [1]: 5.38 µM
IC50 [2]: > 10 µM (inactive)

Cn1c(=O)c2nc(NCc3ccccc3)cnc2n(C)c1=O
IC50 [1]: > 10 µM
IC50 [2]: > 10 µM (inactive)

CCOC(=O)c1cc2c(ccn2C)n1CC(=O)N1CCN(c2ccccc2OC)CC1
IC50 [1]: > 10 µM
IC50 [2]: > 10 µM (inactive)

CCOC(=O)C1=C(N)N2C(=O)C(C)SC2=C(C(=O)OC)C1c1ccccc1OC (stereo unspecified)
IC50 [1]: 0.163 µM
IC50 [2]: 9.99 µM (inactive)

CC1CCCCN1CCNC(=O)Cn1nc(-c2ccccc2)ccc1=O (stereo unspecified)
IC50 [1]: > 10 µM
IC50 [2]: > 10 µM (inactive)

O=C(NCc1ccccc1)NS(=O)(=O)c1ccccc1Cl
IC50 [1]: > 10 µM
IC50 [2]: > 10 µM (inactive)

O=C(NC1CCCC1)C(c1ccsc1)N(C(=O)Cc1cccs1)c1ccc(F)cc1 (stereo unspecified)
IC50 [1]: > 10 µM
IC50 [2]: > 10 µM (inactive)

C=CCc1ccccc1OCC(O)CN1CCN(Cc2ccc3c(c2)OCO3)CC1 (stereo unspecified)
IC50 [1]: > 10 µM
IC50 [2]: 19.6 µM

Nc1c(C(=O)OCC2CCCO2)c2nc3ccccc3nc2n1-c1ccc2c(c1)OCCO2 (stereo unspecified)
IC50 [1]: > 10 µM
IC50 [2]: > 10 µM (inactive)

Cc1ccc(C(=O)OCn2ncc(Cl)c(Cl)c2=O)cc1
IC50 [1]: 4.62 µM
IC50 [2]: > 10 µM (inactive)

CN1C(=O)/C(=C/c2cccn2-c2ccc3ccccc3c2)C(=O)NC1=S
IC50 [1]: 6.58 µM
IC50 [2]: 11.3 µM (inactive)

CCC(C)c1ccc(OCCCCN2CCOCC2)cc1 (stereo unspecified)
IC50 [1]: > 10 µM
IC50 [2]: 24 µM

CCc1ccc(N(C(=O)c2csnn2)C(C(=O)NC(C)(C)C)c2ccncc2)cc1 (stereo unspecified)
IC50 [1]: > 10 µM
IC50 [2]: > 10 µM (inactive)

O=C1OCC(CO)(CO)N=C1NNc1ccc(Cl)c(Cl)c1
IC50 [1]: 3.35 µM
IC50 [2]: 4.53 µM (inactive)

O=C(N/N=C/c1ccc(OC(=O)c2ccccc2)cc1)c1ccc(CN2CCOCC2)cc1
IC50 [1]: > 10 µM
IC50 [2]: > 10 µM (inactive)

ON=Cc1cccn1-c1ccccc1
IC50 [1]: > 10 µM
IC50 [2]: > 10 µM (inactive)

CCOC(=O)Cn1cc(C=O)c2ccccc21
IC50 [1]: > 10 µM
IC50 [2]: > 10 µM (inactive)

Cc1cc(C)n2nc(C(=O)NCc3ccccc3)cc2n1
IC50 [1]: > 10 µM
IC50 [2]: > 10 µM (inactive)

CCOC(=O)C(NC(C)=O)(Nc1ccc(S(=O)(=O)Nc2onc(C)c2C)cc1)C(F)(F)F (stereo unspecified)
IC50 [1]: > 10 µM
IC50 [2]: > 10 µM (inactive)

C/C(CCC12CC3CC(CC(C3)C1)C2)=N\NC(N)=S
IC50 [1]: 5.28 µM
IC50 [2]: 4.94 µM

O=C(C1COc2ccccc2O1)N1CCN(Cc2ccc3c(c2)OCO3)CC1 (stereo unspecified)
IC50 [1]: > 10 µM
IC50 [2]: > 10 µM (inactive)

CCOc1cc(/C=C\[N+](=O)[O-])ccc1OCC(=O)Nc1ccccc1C
IC50 [1]: > 10 µM
IC50 [2]: > 10 µM (inactive)

Cc1ccnc(N2C(=O)c3cccc4c([N+](=O)[O-])ccc(c34)C2=O)c1
IC50 [1]: 4.22 µM
IC50 [2]: 7.94 µM (inactive)

Cc1nn(-c2ccccn2)c(C)c1Oc1ccccc1O
IC50 [1]: > 10 µM
IC50 [2]: > 10 µM (inactive)

Cc1ccc(CSc2nc3ccccc3cc2C=O)cc1
IC50 [1]: 2.1 µM
IC50 [2]: 7.24 µM (inactive)

CC(=O)c1cnc2nc(C)nn2c1C
IC50 [1]: > 10 µM
IC50 [2]: > 10 µM (inactive)

CCN(CC)c1nc2cc(OC)ccc2cc1C#N
IC50 [1]: > 10 µM
IC50 [2]: > 10 µM (inactive)

CCCCOc1ccc(-c2ncc(C(=O)O)c(C)n2)cc1
IC50 [1]: > 10 µM
IC50 [2]: > 10 µM (inactive)

N=c1c2c(-c3ccccc3)c(-c3ccccc3)n(Cc3ccco3)c2ncn1Cc1ccco1
IC50 [1]: 21.5 µM
IC50 [2]: 16.7 µM

Cc1nc(NC(=O)c2ccccc2)sc1-c1csc(NCc2ccccc2)n1
IC50 [1]: > 10 µM
IC50 [2]: > 10 µM (inactive)

O=C(OCn1ncc(Cl)c(Cl)c1=O)c1ccc(C(F)(F)F)cc1
IC50 [1]: > 10 µM
IC50 [2]: > 10 µM (inactive)

Clc1ccc(-c2n[nH]c3c2CCC3)c(Cl)c1
IC50 [1]: 0.518 µM
IC50 [2]: 1.12 µM (inactive)

O=C(Cn1nnc(-c2ccc(S(=O)(=O)N3CCCC3)cc2)n1)NCC1CCCO1 (stereo unspecified)
IC50 [1]: > 10 µM
IC50 [2]: > 10 µM (inactive)

CCN1C(=O)c2ccc(C(=O)NCc3ccccc3)cc2C1=O
IC50 [1]: > 10 µM
IC50 [2]: > 10 µM (inactive)

CCCOc1ccccc1N/C(=N/c1nc(C)cc(C)n1)NC(=O)COc1ccc(OC)cc1
IC50 [1]: > 10 µM
IC50 [2]: > 10 µM (inactive)

CCOc1ccc(NC(=O)C/C(N)=N/O)cc1
IC50 [1]: > 10 µM
IC50 [2]: > 10 µM (inactive)

CC(C)COC(=O)c1ccc2c(c1O)C(=O)c1ccccc1C2=O
IC50 [1]: > 10 µM
IC50 [2]: > 10 µM (inactive)
